Reference: PMC7026418, “The kinase polypharmacology landscape of clinical PARP inhibitors” (Scientific Reports, 2020)
Where two headings read alike, the source gives them in different places. One block for each molecule: values may come before it.

What was measured:
Assay in all cases: biochemical
Set-up in all cases: DiscoveRx KINOMEscan active site-directed competition binding; percent of control kinase bound to immobilised ligand
BRSK1 = target: T1, BRSK1 (Homo sapiens, UniProt Q8TDC3)
T1 sequence (Q8TDC3 1-778): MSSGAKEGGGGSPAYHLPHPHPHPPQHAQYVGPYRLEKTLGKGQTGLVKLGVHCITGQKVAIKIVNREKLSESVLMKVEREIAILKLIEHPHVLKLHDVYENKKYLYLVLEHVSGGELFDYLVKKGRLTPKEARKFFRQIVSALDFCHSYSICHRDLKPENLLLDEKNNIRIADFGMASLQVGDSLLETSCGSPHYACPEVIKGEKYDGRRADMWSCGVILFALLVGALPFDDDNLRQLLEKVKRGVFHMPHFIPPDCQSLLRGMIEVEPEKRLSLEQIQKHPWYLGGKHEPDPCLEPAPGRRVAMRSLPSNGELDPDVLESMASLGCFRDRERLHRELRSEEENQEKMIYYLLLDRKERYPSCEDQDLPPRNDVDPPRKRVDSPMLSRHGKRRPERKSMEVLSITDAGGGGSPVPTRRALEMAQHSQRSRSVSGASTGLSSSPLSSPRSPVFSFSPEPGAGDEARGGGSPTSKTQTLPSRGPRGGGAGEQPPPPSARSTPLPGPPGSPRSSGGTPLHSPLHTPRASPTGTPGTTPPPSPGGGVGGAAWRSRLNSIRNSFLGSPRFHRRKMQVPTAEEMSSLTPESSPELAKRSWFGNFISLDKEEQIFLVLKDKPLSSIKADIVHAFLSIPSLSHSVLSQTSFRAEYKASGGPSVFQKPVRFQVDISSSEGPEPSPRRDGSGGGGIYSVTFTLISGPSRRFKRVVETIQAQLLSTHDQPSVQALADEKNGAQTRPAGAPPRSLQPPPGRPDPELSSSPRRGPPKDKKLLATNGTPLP

EPHA1 = target: T2, EPHA1 (Homo sapiens, UniProt P21709)
T2 sequence (P21709 1-976): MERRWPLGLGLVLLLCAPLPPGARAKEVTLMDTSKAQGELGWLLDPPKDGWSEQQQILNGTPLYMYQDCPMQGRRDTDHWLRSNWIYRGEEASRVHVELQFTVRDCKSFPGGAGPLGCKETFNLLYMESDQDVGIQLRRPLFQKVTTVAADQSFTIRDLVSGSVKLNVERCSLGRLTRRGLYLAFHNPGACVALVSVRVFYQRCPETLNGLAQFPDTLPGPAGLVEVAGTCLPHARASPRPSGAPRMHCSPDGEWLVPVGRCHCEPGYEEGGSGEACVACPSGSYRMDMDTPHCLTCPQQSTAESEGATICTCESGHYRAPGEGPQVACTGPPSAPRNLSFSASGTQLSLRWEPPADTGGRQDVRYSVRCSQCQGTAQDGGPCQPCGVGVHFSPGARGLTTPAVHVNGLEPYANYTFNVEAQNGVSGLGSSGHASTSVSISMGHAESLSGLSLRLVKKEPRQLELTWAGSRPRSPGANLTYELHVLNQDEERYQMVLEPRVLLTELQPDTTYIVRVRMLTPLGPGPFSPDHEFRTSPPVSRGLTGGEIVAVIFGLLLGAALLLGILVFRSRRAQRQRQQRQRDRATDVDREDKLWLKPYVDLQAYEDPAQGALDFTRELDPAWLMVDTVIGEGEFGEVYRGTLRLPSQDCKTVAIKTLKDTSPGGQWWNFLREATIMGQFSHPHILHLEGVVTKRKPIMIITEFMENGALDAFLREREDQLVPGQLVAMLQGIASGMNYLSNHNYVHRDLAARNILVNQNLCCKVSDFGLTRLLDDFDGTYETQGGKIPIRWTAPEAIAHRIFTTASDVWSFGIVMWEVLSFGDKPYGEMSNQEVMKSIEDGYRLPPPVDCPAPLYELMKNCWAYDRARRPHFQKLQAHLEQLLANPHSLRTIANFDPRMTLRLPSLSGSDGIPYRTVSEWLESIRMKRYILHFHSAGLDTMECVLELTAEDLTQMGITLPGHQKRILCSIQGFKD

FGFR2 = FGFR2 (Homo sapiens, UniProt P21802)
KIT-autoinhibited = KIT-autoinhibited (Homo sapiens, UniProt P10721)
MAPKAPK2 = MAPKAPK2 (Homo sapiens, UniProt P49137)
TIE2 = target: T3, TIE2 (Homo sapiens, UniProt Q02763)
T3 construct: gene TEK

p38-gamma = target: T4, p38-gamma (Homo sapiens, UniProt P53778)
T4 construct: gene MAPK12
T4 sequence (P53778 1-367): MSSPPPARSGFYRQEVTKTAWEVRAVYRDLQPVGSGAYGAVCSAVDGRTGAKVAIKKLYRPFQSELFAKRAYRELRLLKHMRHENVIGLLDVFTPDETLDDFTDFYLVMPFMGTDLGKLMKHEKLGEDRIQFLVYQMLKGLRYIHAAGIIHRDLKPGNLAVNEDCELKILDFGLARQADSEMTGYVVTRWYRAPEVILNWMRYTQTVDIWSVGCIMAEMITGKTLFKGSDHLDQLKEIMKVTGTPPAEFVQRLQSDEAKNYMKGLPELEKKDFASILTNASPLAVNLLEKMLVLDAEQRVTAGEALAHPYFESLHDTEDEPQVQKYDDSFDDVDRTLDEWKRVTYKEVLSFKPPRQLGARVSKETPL

[1] = read-out: Niraparib (MK-4827) / %Ctrl @ 10000nM
[2] = read-out: Rucaparib / %Ctrl @ 10000nM, binding competition, % of control
[3] = read-out: Olaparib / %Ctrl @ 10000nM
[4] = read-out: Talazoparib (BMN 673) / %Ctrl @ 10000nM

MAPKAPK2, sequence (P49137 whole entry): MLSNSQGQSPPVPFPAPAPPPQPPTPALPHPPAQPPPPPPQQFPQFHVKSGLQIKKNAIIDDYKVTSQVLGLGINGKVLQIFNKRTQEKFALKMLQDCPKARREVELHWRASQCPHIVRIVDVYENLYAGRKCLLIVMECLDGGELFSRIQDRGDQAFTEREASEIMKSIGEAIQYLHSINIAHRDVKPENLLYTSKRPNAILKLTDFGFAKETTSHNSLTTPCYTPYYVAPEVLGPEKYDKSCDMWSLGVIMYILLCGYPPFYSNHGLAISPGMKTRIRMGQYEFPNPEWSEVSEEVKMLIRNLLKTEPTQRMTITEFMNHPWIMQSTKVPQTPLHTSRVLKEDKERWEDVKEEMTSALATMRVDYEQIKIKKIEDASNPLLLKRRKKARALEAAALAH
T3 sequence (Q02763 whole entry): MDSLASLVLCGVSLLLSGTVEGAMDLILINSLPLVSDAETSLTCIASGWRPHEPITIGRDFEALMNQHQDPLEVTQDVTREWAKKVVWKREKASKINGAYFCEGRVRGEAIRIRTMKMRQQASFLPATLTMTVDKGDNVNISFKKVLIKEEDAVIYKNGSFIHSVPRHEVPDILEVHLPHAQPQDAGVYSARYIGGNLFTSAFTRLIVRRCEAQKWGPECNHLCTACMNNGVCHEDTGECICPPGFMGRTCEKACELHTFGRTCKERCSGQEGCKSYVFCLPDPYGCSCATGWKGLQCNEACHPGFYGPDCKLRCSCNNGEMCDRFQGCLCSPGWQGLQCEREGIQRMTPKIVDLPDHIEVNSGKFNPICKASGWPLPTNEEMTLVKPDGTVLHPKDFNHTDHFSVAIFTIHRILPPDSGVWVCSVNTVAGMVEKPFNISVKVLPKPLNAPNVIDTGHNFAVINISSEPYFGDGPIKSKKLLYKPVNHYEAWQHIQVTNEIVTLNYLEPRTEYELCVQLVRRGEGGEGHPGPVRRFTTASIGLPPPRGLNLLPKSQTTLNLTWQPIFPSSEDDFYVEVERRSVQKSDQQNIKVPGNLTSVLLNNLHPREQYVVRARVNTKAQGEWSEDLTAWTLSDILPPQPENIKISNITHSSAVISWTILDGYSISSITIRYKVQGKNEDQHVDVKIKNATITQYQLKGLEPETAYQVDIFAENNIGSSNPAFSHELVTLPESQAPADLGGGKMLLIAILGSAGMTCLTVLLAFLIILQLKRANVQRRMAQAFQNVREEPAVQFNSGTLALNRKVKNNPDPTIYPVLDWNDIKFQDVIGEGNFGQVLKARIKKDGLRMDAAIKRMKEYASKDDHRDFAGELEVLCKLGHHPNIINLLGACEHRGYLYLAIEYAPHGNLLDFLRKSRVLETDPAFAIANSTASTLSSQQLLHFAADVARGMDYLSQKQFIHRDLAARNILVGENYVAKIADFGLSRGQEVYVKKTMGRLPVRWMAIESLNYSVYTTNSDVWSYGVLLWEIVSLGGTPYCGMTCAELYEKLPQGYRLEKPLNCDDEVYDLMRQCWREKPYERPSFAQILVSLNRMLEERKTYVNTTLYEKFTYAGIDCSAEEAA
FGFR2, sequence (P21802 whole entry): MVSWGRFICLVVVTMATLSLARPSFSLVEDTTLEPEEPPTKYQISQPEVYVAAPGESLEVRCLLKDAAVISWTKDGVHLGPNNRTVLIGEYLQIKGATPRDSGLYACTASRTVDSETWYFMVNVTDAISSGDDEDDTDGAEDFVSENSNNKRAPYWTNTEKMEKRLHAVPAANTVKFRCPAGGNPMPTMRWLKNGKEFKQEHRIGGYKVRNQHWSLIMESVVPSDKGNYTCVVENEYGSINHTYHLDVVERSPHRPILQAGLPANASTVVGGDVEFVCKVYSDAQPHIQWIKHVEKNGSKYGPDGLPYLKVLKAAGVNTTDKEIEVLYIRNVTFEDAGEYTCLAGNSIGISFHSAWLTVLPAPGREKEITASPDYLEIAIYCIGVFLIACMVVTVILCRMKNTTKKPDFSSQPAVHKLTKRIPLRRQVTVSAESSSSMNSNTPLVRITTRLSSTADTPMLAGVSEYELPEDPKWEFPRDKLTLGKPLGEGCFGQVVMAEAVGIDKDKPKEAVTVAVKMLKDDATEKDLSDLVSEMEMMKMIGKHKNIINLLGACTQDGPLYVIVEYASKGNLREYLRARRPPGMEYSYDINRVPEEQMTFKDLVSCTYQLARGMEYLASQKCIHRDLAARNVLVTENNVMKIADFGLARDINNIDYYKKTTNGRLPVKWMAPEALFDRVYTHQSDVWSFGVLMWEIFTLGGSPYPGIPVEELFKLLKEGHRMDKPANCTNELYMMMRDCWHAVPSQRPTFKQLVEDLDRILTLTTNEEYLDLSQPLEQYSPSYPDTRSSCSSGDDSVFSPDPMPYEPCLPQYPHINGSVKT
KIT-autoinhibited, sequence (P10721 whole entry): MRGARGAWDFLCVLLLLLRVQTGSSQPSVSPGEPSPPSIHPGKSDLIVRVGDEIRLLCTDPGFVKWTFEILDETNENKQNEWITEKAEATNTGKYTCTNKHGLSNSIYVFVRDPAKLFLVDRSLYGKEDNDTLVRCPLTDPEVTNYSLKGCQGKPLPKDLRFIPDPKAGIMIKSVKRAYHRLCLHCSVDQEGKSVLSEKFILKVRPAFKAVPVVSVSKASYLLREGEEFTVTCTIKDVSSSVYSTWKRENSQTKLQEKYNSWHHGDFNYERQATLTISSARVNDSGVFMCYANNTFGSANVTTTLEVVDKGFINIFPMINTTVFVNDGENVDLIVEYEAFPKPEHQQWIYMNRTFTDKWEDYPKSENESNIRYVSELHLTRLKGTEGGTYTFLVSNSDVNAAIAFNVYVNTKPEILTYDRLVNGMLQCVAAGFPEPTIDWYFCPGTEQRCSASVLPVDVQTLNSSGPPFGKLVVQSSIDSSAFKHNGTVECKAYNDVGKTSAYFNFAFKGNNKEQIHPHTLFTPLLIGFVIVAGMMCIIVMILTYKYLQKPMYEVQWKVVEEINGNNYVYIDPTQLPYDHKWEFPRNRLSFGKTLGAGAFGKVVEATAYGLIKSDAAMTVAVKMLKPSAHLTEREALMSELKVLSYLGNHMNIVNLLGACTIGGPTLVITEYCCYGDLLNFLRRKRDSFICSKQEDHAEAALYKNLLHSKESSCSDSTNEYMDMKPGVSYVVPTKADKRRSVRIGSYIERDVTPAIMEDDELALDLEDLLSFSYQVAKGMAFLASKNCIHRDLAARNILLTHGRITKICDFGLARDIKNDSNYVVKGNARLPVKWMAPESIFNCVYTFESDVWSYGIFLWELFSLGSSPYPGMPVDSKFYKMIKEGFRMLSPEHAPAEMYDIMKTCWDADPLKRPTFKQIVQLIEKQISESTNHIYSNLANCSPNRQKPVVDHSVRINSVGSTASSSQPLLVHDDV

SMILES: NC(=O)c1cccc2cn(-c3ccc([C@@H]4CCCNC4)cc3)nc12 [Niraparib]
percent of control binding at 10 µM (BRSK1; [1]): 92%
percent of control binding at 10 µM (EPHA1; [1]): 86%
percent of control binding at 10 µM (FGFR2; [1]): 100%
percent of control binding at 10 µM (KIT-autoinhibited; [1]): 85%
percent of control binding at 10 µM (MAPKAPK2; [1]): 80%
percent of control binding at 10 µM (TIE2; [1]): 98%
percent of control binding at 10 µM (p38-gamma; [1]): 48%

percent of control binding at 10 µM (BRSK1; [2]): 74%
percent of control binding at 10 µM (EPHA1; [2]): 99%
percent of control binding at 10 µM (FGFR2; [2]): 99%
percent of control binding at 10 µM (KIT-autoinhibited; [2]): 68%
percent of control binding at 10 µM (MAPKAPK2; [2]): 100%
percent of control binding at 10 µM (TIE2; [2]): 92%
percent of control binding at 10 µM (p38-gamma; [2]): 58%
SMILES: CNCc1ccc(-c2[nH]c3cc(F)cc4c3c2CCNC4=O)cc1 [Rucaparib]

percent of control binding at 10 µM (BRSK1; [3]): 91%
percent of control binding at 10 µM (EPHA1; [3]): 92%
percent of control binding at 10 µM (FGFR2; [3]): 100%
percent of control binding at 10 µM (KIT-autoinhibited; [3]): 93%
percent of control binding at 10 µM (MAPKAPK2; [3]): 84%
percent of control binding at 10 µM (TIE2; [3]): 100%
percent of control binding at 10 µM (p38-gamma; [3]): 83%
SMILES: O=C(c1cc(Cc2n[nH]c(=O)c3ccccc23)ccc1F)N1CCN(C(=O)C2CC2)CC1 [Olaparib]

percent of control binding at 10 µM (BRSK1; [4]): 100%
percent of control binding at 10 µM (EPHA1; [4]): 98%
percent of control binding at 10 µM (FGFR2; [4]): 100%
percent of control binding at 10 µM (KIT-autoinhibited; [4]): 100%
percent of control binding at 10 µM (MAPKAPK2; [4]): 100%
percent of control binding at 10 µM (TIE2; [4]): 100%
percent of control binding at 10 µM (p38-gamma; [4]): 60%
SMILES: Cn1ncnc1[C@H]1c2n[nH]c(=O)c3cc(F)cc(c23)N[C@@H]1c1ccc(F)cc1 [Talazoparib]
